Results from ChEMBL document CHEMBL1275577, “Study of the in vitro activities of rifaximin and comparator agents against 536 anaerobic intestinal bacteria from the perspective of potential utility in pathology involving bowel flora” (Antimicrob Agents Chemother, 2009).

How the values were obtained:
Type in all cases: functional
Fusobacterium sp. = test: Antimicrobial activity against Fusobacterium sp. by Wadsworth agar dilution method
Schaalia meyeri = test: Antimicrobial activity against Actinomyces meyeri by Wadsworth agar dilution method
Clostridioides difficile = test: Antimicrobial activity against Clostridium difficile by Wadsworth agar dilution method
[1] = system: Lacticaseibacillus rhamnosus; test: Antimicrobial activity against Lactobacillus rhamnosus by Wadsworth agar dilution method
[2] = system: Parabacteroides goldsteinii; test: Antimicrobial activity against Parabacteroides goldsteinii by Wadsworth agar dilution method
Eubacterium limosum = test: Antimicrobial activity against Eubacterium limosum by Wadsworth agar dilution method
Clostridium glycolicum = test: Antimicrobial activity against Clostridium glycolicum by Wadsworth agar dilution method; conditions: Terrisporobacter glycolicus
Clostridium subterminale = test: Antimicrobial activity against Clostridium subterminale by Wadsworth agar dilution method
Clostridium bartlettii = test: Antimicrobial activity against Clostridium bartlettii by Wadsworth agar dilution method; conditions: Intestinibacter bartlettii
[3] = system: Fusobacterium necrophorum; test: Antimicrobial activity against Fusobacterium necrophorum by Wadsworth agar dilution method
Schaalia odontolytica = test: Antimicrobial activity against Actinomyces odontolyticus by Wadsworth agar dilution method
Eubacterium callanderi = test: Antimicrobial activity against Eubacterium callanderi by Wadsworth agar dilution method
Bacteroides fragilis = test: Antimicrobial activity against Bacteroides fragilis by Wadsworth agar dilution method
Bifidobacterium dentium = test: Antimicrobial activity against Bifidobacterium dentium by Wadsworth agar dilution method
Parvimonas micra = test: Antimicrobial activity against Peptostreptococcus micros by Wadsworth agar dilution method
Clostridium nexile = test: Antimicrobial activity against Clostridium nexile by Wadsworth agar dilution method; conditions: Faecalimonas nexilis
Clostridium bolteae = test: Antimicrobial activity against Clostridium bolteae by Wadsworth agar dilution method; conditions: Enterocloster bolteae
[4] = system: Lactobacillus acidophilus; test: Antimicrobial activity against Lactobacillus acidophilus by Wadsworth agar dilution method
[Clostridium] innocuum = Antimicrobial activity against Clostridium innocuum by Wadsworth agar dilution method
Anaerococcus prevotii = test: Antimicrobial activity against Anaerococcus prevotii by Wadsworth agar dilution method
Bacteroides uniformis = test: Antimicrobial activity against Bacteroides uniformis by Wadsworth agar dilution method
[5] = system: Porphyromonas asaccharolytica; test: Antimicrobial activity against Porphyromonas asaccharolyticus by Wadsworth agar dilution method
Prevotella disiens = test: Antimicrobial activity against Prevotella disiens by Wadsworth agar dilution method
Desulfovibrio piger = test: Antimicrobial activity against Desulfovibrio piger by Wadsworth agar dilution method
Clostridium butyricum = test: Antimicrobial activity against Clostridium butyricum by Wadsworth agar dilution method
Finegoldia magna = test: Antimicrobial activity against Finegoldia magna by Wadsworth agar dilution method
[6] = system: Clostridium paraputrificum; test: Antimicrobial activity against Clostridium paraputrificum by Wadsworth agar dilution method
[7] = system: Lactobacillus catenaformis; test: Antimicrobial activity against Lactobacillus catenaformis by Wadsworth agar dilution method; conditions: Eggerthia catenaformis
Bilophila wadsworthia = test: Antimicrobial activity against Bilophila wadsworthia by Wadsworth agar dilution method in presence of 1% pyruvic acid
Prevotella intermedia = test: Antimicrobial activity against Prevotella intermedia by Wadsworth agar dilution method
Desulfovibrio sp. = test: Antimicrobial activity against Desulfovibrio sp. by Wadsworth agar dilution method
[8] = system: Clostridium lactatifermentans; test: Antimicrobial activity against Clostridium lactatifermentans by Wadsworth agar dilution method; conditions: Anaerotignum lactatifermentans
Collinsella aerofaciens = test: Antimicrobial activity against Colinsella aerofaciens by Wadsworth agar dilution method
[9] = system: Clostridium aminobutyricum; test: Antimicrobial activity against Clostridium aminobutyricum by Wadsworth agar dilution method
Clostridium disporicum = test: Antimicrobial activity against Clostridium disporicum by Wadsworth agar dilution method
[10] = system: Peptoniphilus asaccharolyticus; test: Antimicrobial activity against Peptoniphilus asaccharolyticus by Wadsworth agar dilution method
[11] = system: Propionibacterium propionicum; test: Antimicrobial activity against Propionibacterium propionicum by Wadsworth agar dilution method; conditions: Arachnia propionica
Fusobacterium varium = test: Antimicrobial activity against Fusobacterium varium by Wadsworth agar dilution method
Prevotella corporis = test: Antimicrobial activity against Prevotella corporis by Wadsworth agar dilution method
[12] = system: Clostridium acetobutylicum; test: Antimicrobial activity against Clostridium acetobutylicum by Wadsworth agar dilution method
Lactobacillus sp. = test: Antimicrobial activity against Lactobacillus sp. by Wadsworth agar dilution method
Clostridium sporogenes = test: Antimicrobial activity against Clostridium sporogenes by Wadsworth agar dilution method
[13] = system: Limosilactobacillus reuteri; test: Antimicrobial activity against Lactobacillus reuteri by Wadsworth agar dilution method
Clostridium scindens = test: Antimicrobial activity against Clostridium scindens by Wadsworth agar dilution method
Blautia producta = test: Antimicrobial activity against Ruminococcus productus by Wadsworth agar dilution method
Porphyromonas = test: Antimicrobial activity against Porphyromonas sp. by Wadsworth agar dilution method
Fusobacterium mortiferum = test: Antimicrobial activity against Fusobacterium mortiferum by Wadsworth agar dilution method in presence of beta-lactamase inhibitor Sulbactam

CO[C@H]1/C=C/O[C@@]2(C)Oc3c(C)c(O)c4c(O)c(c5c(nc6cc(C)ccn65)c4c3C2=O)NC(=O)/C(C)=C\C=C\[C@H](C)[C@H](O)[C@@H](C)[C@@H](O)[C@@H](C)[C@H](OC(C)=O)[C@@H]1C [RIFAXIMIN]
4 µg/mL: MIC90 (Parvimonas micra) | MIC90 (Anaerococcus prevotii) | MIC90 (Finegoldia magna) | MIC90 [10] | MIC90 (Blautia producta)
> 1020 µg/mL: MIC90 (Fusobacterium sp.) | MIC90 (Schaalia meyeri) | MIC90 [1] | MIC90 (Eubacterium limosum) | MIC90 (Clostridium glycolicum) | MIC90 (Clostridium subterminale) | MIC90 (Clostridium bartlettii) | MIC90 [3] | MIC90 (Schaalia odontolytica) | MIC90 (Eubacterium callanderi) | MIC90 (Bacteroides fragilis) | MIC90 (Bifidobacterium dentium) | MIC90 (Clostridium nexile) | MIC90 (Clostridium bolteae) | MIC90 [4] | MIC50 ([Clostridium] innocuum) | MIC90 ([Clostridium] innocuum) | MIC90 (Clostridium butyricum) | MIC90 [6] | MIC90 [7] | MIC90 [8] | MIC90 (Collinsella aerofaciens) | MIC90 [9] | MIC90 (Clostridium disporicum) | MIC90 [11] | MIC90 (Fusobacterium varium) | MIC90 [12] | MIC90 (Lactobacillus sp.) | MIC90 (Clostridium sporogenes) | MIC90 [13] | MIC90 (Clostridium scindens) | MIC90 (Fusobacterium mortiferum)
0.5 µg/mL: MIC50 (Schaalia meyeri) | MIC50 [1] | MIC50 (Eubacterium limosum) | MIC50 (Schaalia odontolytica) | MIC50 (Eubacterium callanderi) | MIC50 (Bifidobacterium dentium) | MIC50 [4] | MIC90 (Bacteroides uniformis) | MIC90 [5] | MIC90 (Prevotella disiens) | MIC50 [7] | MIC90 (Bilophila wadsworthia) | MIC90 (Prevotella intermedia) | MIC50 (Collinsella aerofaciens) | MIC50 [11] | MIC90 (Prevotella corporis) | MIC50 (Lactobacillus sp.) | MIC50 [13] | MIC90 (Porphyromonas)
0.25 µg/mL: MIC50 (Clostridioides difficile) | MIC90 (Clostridioides difficile) | MIC [2] | MIC50 [2] | MIC (Clostridium glycolicum) | MIC50 (Clostridium glycolicum) | MIC (Clostridium subterminale) | MIC50 (Clostridium subterminale) | MIC (Clostridium bartlettii) | MIC50 (Clostridium bartlettii) | MIC (Bacteroides fragilis) | MIC50 (Bacteroides fragilis) | MIC (Parvimonas micra) | MIC50 (Parvimonas micra) | MIC (Clostridium nexile) | MIC50 (Clostridium nexile) | MIC (Clostridium bolteae) | MIC50 (Clostridium bolteae) | MIC (Anaerococcus prevotii) | MIC50 (Anaerococcus prevotii) | MIC (Bacteroides uniformis) | MIC50 (Bacteroides uniformis) | MIC [5] | MIC50 [5] | MIC (Prevotella disiens) | MIC50 (Prevotella disiens) | MIC (Clostridium butyricum) | MIC50 (Clostridium butyricum) | MIC (Finegoldia magna) | MIC50 (Finegoldia magna) | MIC [6] | MIC50 [6] | MIC (Bilophila wadsworthia) | MIC50 (Bilophila wadsworthia) | MIC (Prevotella intermedia) | MIC50 (Prevotella intermedia) | MIC [8] | MIC50 [8] | MIC [9] | MIC50 [9] | MIC (Clostridium disporicum) | MIC50 (Clostridium disporicum) | MIC [10] | MIC50 [10] | MIC (Prevotella corporis) | MIC50 (Prevotella corporis) | MIC [12] | MIC50 [12] | MIC (Clostridium sporogenes) | MIC50 (Clostridium sporogenes) | MIC (Clostridium scindens) | MIC50 (Clostridium scindens) | MIC (Blautia producta) | MIC50 (Blautia producta) | MIC (Porphyromonas) | MIC50 (Porphyromonas)
16 µg/mL: MIC50 (Fusobacterium sp.) | MIC50 [3] | MIC50 (Desulfovibrio piger) | MIC50 (Desulfovibrio sp.) | MIC50 (Fusobacterium varium) | MIC50 (Fusobacterium mortiferum)
1 µg/mL: MIC90 [2]
332 µg/mL: MIC90 (Desulfovibrio piger) | MIC90 (Desulfovibrio sp.)

NC[C@@H]1O[C@H](O[C@H]2[C@@H](O)[C@H](O[C@@H]3[C@@H](O)[C@H](N)C[C@H](N)[C@H]3O[C@H]3O[C@H](CN)[C@@H](O)[C@H](O)[C@H]3N)O[C@@H]2CO)[C@H](N)[C@@H](O)[C@@H]1O [FRAMYCETIN]
> 1020 µg/mL: MIC90 (Fusobacterium sp.) | MIC90 [2] | MIC90 [3] | MIC50 (Bacteroides fragilis) | MIC90 (Bacteroides fragilis) | MIC50 ([Clostridium] innocuum) | MIC90 ([Clostridium] innocuum) | MIC50 (Bacteroides uniformis) | MIC90 (Bacteroides uniformis) | MIC90 [5] | MIC50 (Bilophila wadsworthia) | MIC90 (Bilophila wadsworthia) | MIC90 (Fusobacterium varium) | MIC90 (Porphyromonas) | MIC90 (Fusobacterium mortiferum)
1020 µg/mL: MIC90 (Schaalia meyeri) | MIC90 [1] | MIC50 [2] | MIC90 (Eubacterium limosum) | MIC90 (Clostridium glycolicum) | MIC90 (Clostridium subterminale) | MIC90 (Clostridium bartlettii) | MIC90 (Schaalia odontolytica) | MIC90 (Eubacterium callanderi) | MIC90 (Bifidobacterium dentium) | MIC90 (Clostridium nexile) | MIC90 (Clostridium bolteae) | MIC90 [4] | MIC90 (Prevotella disiens) | MIC90 (Desulfovibrio piger) | MIC90 (Clostridium butyricum) | MIC90 [6] | MIC90 [7] | MIC90 (Prevotella intermedia) | MIC90 (Desulfovibrio sp.) | MIC90 [8] | MIC90 (Collinsella aerofaciens) | MIC90 [9] | MIC90 (Clostridium disporicum) | MIC90 [11] | MIC90 (Prevotella corporis) | MIC90 [12] | MIC90 (Lactobacillus sp.) | MIC90 (Clostridium sporogenes) | MIC90 [13] | MIC90 (Clostridium scindens)
512 µg/mL: MIC50 (Fusobacterium sp.) | MIC90 (Clostridioides difficile) | MIC50 [3] | MIC90 (Parvimonas micra) | MIC90 (Anaerococcus prevotii) | MIC50 [5] | MIC50 (Prevotella disiens) | MIC90 (Finegoldia magna) | MIC50 (Prevotella intermedia) | MIC90 [10] | MIC50 (Fusobacterium varium) | MIC50 (Prevotella corporis) | MIC90 (Blautia producta) | MIC50 (Porphyromonas) | MIC50 (Fusobacterium mortiferum)
256 µg/mL: MIC50 (Clostridioides difficile) | MIC50 (Clostridium glycolicum) | MIC50 (Clostridium subterminale) | MIC50 (Clostridium bartlettii) | MIC50 (Clostridium nexile) | MIC50 (Clostridium bolteae) | MIC50 (Desulfovibrio piger) | MIC50 (Clostridium butyricum) | MIC50 [6] | MIC50 (Desulfovibrio sp.) | MIC50 [8] | MIC50 [9] | MIC50 (Clostridium disporicum) | MIC50 [12] | MIC50 (Clostridium sporogenes) | MIC50 (Clostridium scindens)
128 µg/mL: MIC50 (Schaalia meyeri) | MIC50 [1] | MIC50 (Eubacterium limosum) | MIC50 (Schaalia odontolytica) | MIC50 (Eubacterium callanderi) | MIC50 (Bifidobacterium dentium) | MIC50 (Parvimonas micra) | MIC50 [4] | MIC50 (Anaerococcus prevotii) | MIC50 (Finegoldia magna) | MIC50 [7] | MIC50 (Collinsella aerofaciens) | MIC50 [10] | MIC50 [11] | MIC50 (Lactobacillus sp.) | MIC50 [13] | MIC50 (Blautia producta)
